This note sets out measurements from the supplement of paper PMC10307832.

What all share (assay): relative viability (nuclei count vs DMSO), 5 days (fraction); higher = more cells survive
Compound in assay [1]: O=C(NC1CCNCC1)c1n[nH]cc1NC(=O)c1c(Cl)cccc1Cl [AT-7519] + N=C(N)NC(=N)NCCc1ccccc1 [Phenformin] (partner 250 µM)
The procedure, abridged: (§1)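 Lung cancer cell lines, seeded in 1536-well plates, were treated the following day by pin tool with a single drug or with five library-drug doses (not always all listed) in √10 steps on top of a fixed anchor-drug dose. Cells were fixed and nuclei stained in one step after 5 days, and nuclei were counted. Relative viability is the nuclei count for treated wells divided by that for vehicle wells, reported as medians of duplicate plates.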

Compound in assay [2]: C1=CC2=C(C=C(C(=C2N=C1)O)N=NC3=CC4=C(C=C3)C=C(C=C4)S(=O)(=O)O)S(=O)(=O)O + Nc1nc2[nH]cc(CCc3ccc(C(=O)N[C@@H](CCC(=O)O)C(=O)O)cc3)c2c(=O)[nH]1 [Pemetrexed] (partner 0.2 µM)
The procedure, abridged:
as §1

Compound in assay [3]: C1=CC2=C(C=C(C(=C2N=C1)O)N=NC3=CC4=C(C=C3)C=C(C=C4)S(=O)(=O)O)S(=O)(=O)O + CC(C)C[C@H](NC(=O)[C@H](Cc1ccccc1)NC(=O)c1cnccn1)B(O)O [Bortezomib] (partner 0.002 µM)
The essentials: as §1

Compound in assay [4]: C1=CC2=C(C=C(C(=C2N=C1)O)N=NC3=CC4=C(C=C3)C=C(C=C4)S(=O)(=O)O)S(=O)(=O)O + CC1(C)CCC(c2ccc(Cl)cc2)=C(CN2CCN(c3ccc(C(=O)NS(=O)(=O)c4ccc(N[C@H](CCN5CCOCC5)CSc5ccccc5)c(S(=O)(=O)C(F)(F)F)c4)cc3)CC2)C1 [Navitoclax] (partner 0.5 µM)
The essentials: as §1

Take PC-14: the relative viability turned out to be 0.519 in assay [1] (first compound 0.01 µM); 0.566 in assay [1] (first compound 0.03162 µM); 0.424 in assay [1] (first compound 0.3162 µM); 0.314 in assay [1] (first compound 1 µM); 0.127 in assay [2] (first compound 0.08 µM); 0.129 in assay [2] (first compound 0.253 µM). The relative viability in assay [2] (first compound 0.8 µM) was 0.145; in assay [2] (first compound 2.53 µM), 0.132; in assay [2] (first compound 8 µM), 0.11; in assay [3] (first compound 0.08 µM) it was 0.923; in assay [3] (first compound 0.253 µM), 0.839; in assay [3] (first compound 0.8 µM), 0.906. In addition, the relative viability was found to be 0.888 in assay [3] (first compound 2.53 µM); 0.856 in assay [3] (first compound 8 µM); 1.02 in assay [4] (first compound 0.08 µM); 0.973 in assay [4] (first compound 0.253 µM); 0.982 in assay [4] (first compound 0.8 µM); 1.05 in assay [4] (first compound 2.53 µM). In addition, the relative viability in assay [4] (first compound 8 µM) amounted to 1.01.
Regarding RERF-LC-KJ, the relative viability in assay [1] (first compound 0.01 µM) stood at 0.456; in assay [1] (first compound 0.03162 µM), 0.418; in assay [1] (first compound 0.3162 µM), 0.388; in assay [1] (first compound 1 µM), 0.217; in assay [2] (first compound 0.08 µM), 0.488; in assay [2] (first compound 0.253 µM), 0.483. The relative viability is 0.464 in assay [2] (first compound 0.8 µM); 0.463 in assay [2] (first compound 2.53 µM); 0.457 in assay [2] (first compound 8 µM); 1.39 in assay [3] (first compound 0.08 µM); 1.1 in assay [3] (first compound 0.253 µM); 1.08 in assay [3] (first compound 0.8 µM). Further, the relative viability in assay [3] (first compound 2.53 µM) is 1.2; in assay [3] (first compound 8 µM) it was 1.14; in assay [4] (first compound 0.08 µM), 1.12; in assay [4] (first compound 0.253 µM), 1.01; in assay [4] (first compound 0.8 µM) it was 0.963; in assay [4] (first compound 2.53 µM), 1.05. In addition, in assay [4] (first compound 8 µM), the relative viability was 0.877.
Regarding SK-LU-1, the relative viability amounted to 0.499 in assay [1] (first compound 0.01 µM); 0.444 in assay [1] (first compound 0.03162 µM); 0.322 in assay [1] (first compound 0.3162 µM); 0.231 in assay [1] (first compound 1 µM); 1.04 in assay [2] (first compound 0.08 µM); 0.937 in assay [2] (first compound 0.253 µM). The relative viability was determined as 0.956 in assay [2] (first compound 0.8 µM); 0.954 in assay [2] (first compound 2.53 µM); 1.01 in assay [2] (first compound 8 µM); 1.05 in assay [3] (first compound 0.08 µM); 0.942 in assay [3] (first compound 0.253 µM); 0.963 in assay [3] (first compound 0.8 µM). Further, the relative viability was determined as 1.1 in assay [3] (first compound 2.53 µM); 0.99 in assay [3] (first compound 8 µM); 1.15 in assay [4] (first compound 0.08 µM); 0.947 in assay [4] (first compound 0.253 µM); 0.747 in assay [4] (first compound 0.8 µM); 0.732 in assay [4] (first compound 2.53 µM). In addition, in assay [4] (first compound 8 µM), the relative viability was determined as 0.801.
SW 1573: the relative viability in assay [1] (first compound 0.01 µM) stood at 0.421; in assay [1] (first compound 0.03162 µM), 0.349; in assay [1] (first compound 0.3162 µM), 0.236; in assay [1] (first compound 1 µM), 0.0778; in assay [2] (first compound 0.08 µM) it was 0.881; in assay [2] (first compound 0.253 µM), 0.817. The relative viability stood at 0.78 in assay [2] (first compound 0.8 µM); 0.838 in assay [2] (first compound 2.53 µM); 0.257 in assay [2] (first compound 8 µM); 0.931 in assay [3] (first compound 0.08 µM); 1.02 in assay [3] (first compound 0.253 µM); 1.04 in assay [3] (first compound 0.8 µM). Moreover, the relative viability in assay [3] (first compound 2.53 µM) was 0.976; in assay [3] (first compound 8 µM), 1.03; in assay [4] (first compound 0.08 µM), 1.01; in assay [4] (first compound 0.253 µM) it was 0.971; in assay [4] (first compound 0.8 µM), 1.03; in assay [4] (first compound 2.53 µM) it was 0.964. The relative viability in assay [4] (first compound 8 µM) was 0.977.
